Legend:
[1] = species: Mus musculus; assay: Hepatoprotective activity in CCl4-induced mouse assessed as change in SGPT level (reference value: 6.9 mmol/L); type: functional
[2] = tested on: Mus musculus; assay: Hepatoprotective activity against CCl4-induced liver injury mouse model assessed as increase in SOD level at 20 ug/mL, ip relative to control (reference value: 5.89 IU/L); type: functional; conditions: dose 20 µg/ml
[3] = tested on: Mus musculus; assay: Hepatoprotective activity against CCl4-induced liver injury mouse model assessed as reduction in AST at 20 ug/mL, ip relative to control (reference value: 9.27 IU/L); type: functional; conditions: dose 20 µg/ml
[4] = tested on: Mus musculus; assay: Hepatoprotective activity against CCl4-induced liver injury mouse model assessed as reduction in MDA level at 20 ug/mL, ip relative to control (reference value: 9.27 IU/L); type: functional; conditions: dose 20 µg/ml
[5] = tested on: Mus musculus; assay: Hepatoprotective activity against CCl4-induced liver injury mouse model assessed as reduction in ALT at 20 ug/mL, ip relative to control (reference value: 13.23 IU/L); type: functional; conditions: dose 20 µg/ml
[6] = tested on: Hepatocyte; assay: Hepatoprotective activity against D-GaIN/TNFalpha-induced cell death in mouse hepatocyte at 100 uM relative to control; type: functional, cell-based; conditions: Mus musculus, Hepatocyte
[7] = Cytotoxicity against human HepG2 cells assessed as reduction in cell viability by SRB assay; type: toxicity, cell-based
[8] = tested on: HepG2; assay: Cytoprotective activity against t-BHP induced cell death in human HepG2 cells assessed as cell survival rate at 10 uM relative to control; type: functional
[9] = tested on: Hepatocyte; assay: Hepatoprotective activity against D-GaIN-induced toxicity in mouse hepatocyte relative to control; type: functional, cell-based
[10] = tested on: Hepatocyte; assay: Hepatoprotective activity against D-GaIN/TNFalpha-induced cell death in mouse hepatocyte at 100 uM; type: functional, cell-based
[11] = tested on: Hepatocyte; assay: Hepatoprotective activity against D-GaIN/TNFalpha -induced cell death in mouse hepatocyte assessed as inhibition at 50 uM relative to control; type: functional; parameters: scale not given: the % may be the effect or the level left
[12] = tested on: Hepatocyte; assay: Hepatoprotective activity against D-GaIN/TNFalpha-induced cell death in mouse hepatocytes at 50 uM assessed as inhibition of cell death relative to control; type: functional; parameters: scale not given: the % may be the effect or the level left
[13] = species: Mus musculus; assay: Hepatoprotective activity in mouse liver homogenate assessed as inhibition of iron/ascorbate lipid peroxidation at 0.1 mg/mL relative to control; type: functional; parameters: scale not given: the % may be the effect or the level left
[14] = species: Mus musculus; assay: Hepatoprotective activity in mouse liver homogenate assessed as inhibition of iron/ascorbate lipid peroxidation at 5.0 mg/mL relative to control; type: functional; parameters: scale not given: the % may be the effect or the level left
[15] = tested on: L02; assay: Protection against D-GalN-induced cell damage in human L02 cells […] assessed as reduction in cell viability […]; type: functional, cell-based
[16] = Hepatotoxicity in D-GaIN induced Wistar rat assessed as change in GTP leakage level for 10 days relative to control; type: toxicity; conditions: in vivo, 240 h, time 10 day
[17] = Hepatotoxicity in D-GaIN induced Wistar rat assessed as change in induction of TAT level for 10 days relative to control; type: toxicity; parameters: concentration or dose not given beside the values; conditions: in vivo, 240 h, time 10 day
[18] = species: Mus musculus; assay: Hepatoprotective activity against D-galactosamine-induced liver injury mouse model assessed as […] leakage at 50 ug/ml; type: functional; conditions: dose 50 µg/ml
[19] = tested on: Huh-7; assay: Hepatoprotective activity in human Huh-7 cells assessed as reduction in AST level; type: functional; parameters: scale not given: the % may be the effect or the level left
[20] = tested on: Hepatocyte; assay: Protection against CCL4-induced rat hepatocyte toxicity assessed as reduction in ALT level at 90 uM relative to control; type: functional; parameters: scale not given: the % may be the effect or the level left
[21] = species: Mus musculus; assay: Hepatoprotective activity in CCl4-induced toxicity in liver injured mouse assessed as increase in inhibition of liver damage at 50 uM relative to control; type: functional; parameters: scale not given: the % may be the effect or the level left
[22] = tested on: Hepatocyte; assay: Hepatoprotective activity against CCl4/GaIN-induced cytotoxicity in rat hepatocytes assessed as decrease in GPT level at 1.0 ug/mL relative to control; type: functional; parameters: scale not given: the % may be the effect or the level left; conditions: dose 1 µg/ml
[23] = species: Mus musculus; assay: Hepatoprotective activity against D-GaIN-induced liver injury mouse model assessed as cell death with increasing cell survival rates at 10 uM relative to control; type: functional
[24] = Hepatotoxicity in CCl4-induced ICR mouse model assessed as change in SOD level, po measured after 7 days; type: toxicity, organism-based; conditions: in vivo, 168 h, time 7 day
[25] = Hepatotoxicity in DMF-induced ICR mouse model assessed as change in GSH-PX level, po measured after 7 days; type: toxicity, organism-based; conditions: in vivo, 168 h, time 7 day
[26] = Hepatotoxicity in CCl4-induced ICR mouse model assessed as change in CAT level, po measured after 7 days; type: toxicity, organism-based; conditions: in vivo, 168 h, time 7 day
[27] = Hepatotoxicity in CCl4-induced ICR mouse model assessed as change in GSH-PX level, po measured after 7 days; type: toxicity, organism-based; conditions: in vivo, 168 h, time 7 day
[28] = Hepatotoxicity in DMF-induced ICR mouse model assessed as change in SOD level, po measured after 7 days; type: toxicity, organism-based; conditions: in vivo, 168 h, time 7 day
[29] = Hepatotoxicity in DMF-induced ICR mouse model assessed as change in CAT level, po measured after 7 days; type: toxicity, organism-based; conditions: in vivo, 168 h, time 7 day
[30] = tested on: L02; assay: Protection against D-GalN-induced toxicity in L02 cells […] assessed as reduction in cell growth at 6.25 microg/ml relative to control; type: functional, Homo sapiens; parameters: scale not given: the % may be the effect or the level left; conditions: dose 6.25 µg/ml
[31] = tested on: L02; assay: Protection against D-GalN-induced toxicity in L02 cells […] assessed as reduction in cell growth relative to control; type: functional, Homo sapiens; parameters: scale not given: the % may be the effect or the level left

Compound: CC1(C)CC[C@]2(C(=O)O)CC[C@]3(C)C(=CC[C@@H]4[C@@]5(C)CCC(OC(=O)/C=C/c6ccc(O)c(O)c6)C(C)(C)[C@@H]5CC[C@]43C)[C@@H]2C1 (stereo partly drawn)
- Activity [1]: 3.53 mmol/L

Compound: C[C@@H]1CC[C@]2(C(=O)O)CC[C@]3(C)C(=CC[C@@H]4[C@@]5(C)[C@H](O)[C@@H](O)[C@@H](O)C(C)(C)[C@@H]5CC[C@]43C)[C@@H]2[C@]1(C)O
- Activity [2]: 21.9 U/ml
- Activity [3]: 4.24 IU/L
- Activity [4]: 3.84 nmol/mL
- Activity [5]: 4.75 IU/L

Compound: COc1cc([C@H]2Oc3cc([C@H]4Oc5cc(O)cc(O)c5C(=O)[C@@H]4O)ccc3O[C@@H]2CO)ccc1O [SILYBIN A]
- IC50 [6]: 29.9 µM
- EC50 [7]: 75.7 µM
- Activity [8]: 52.5%
- IC50 [9]: 38.8 µM
- IC50 [10]: 33.6 µM
- Activity [11]: 61.2%
- Activity [12]: 61.2%

Compound: CC1(C)CC[C@]2(C(=O)O)CC[C@]3(C)C(=CC[C@@H]4[C@@]5(C)CC[C@H](O)C(C)(C)[C@@H]5CC[C@]43C)[C@@H]2C1 [OLEANOLIC_ACID]
- Activity [13]: 13.7%
- Activity [14]: 38.8%
- Activity [1]: 3.64 mmol/L

Compound: CC(=O)C[C@@H](C)[C@H]1CC[C@@]2(C)[C@@H]3C(=O)C=C4[C@@H](CC[C@@H](O)C4(C)C)[C@]3(C)CC[C@]12C
- Activity [8]: 56.9%

Compound: CC(=O)O[C@H]1[C@@H]2O[C@@]3(C(C)(C)O)CC[C@](C)(O3)C2[C@@]2(CO)CC[C@@]34C[C@@]35CC[C@H](O[C@@H]3OC[C@@H](O)[C@H](O)[C@H]3O)C(C)(C)C5CC[C@H]4[C@]12C (stereo partly drawn)
- EC50 [15]: 74.1 µM

Compound: CC1(C)CC[C@]2(C)CC[C@]3(C)C(=CC[C@@H]4[C@@]5(C)CC[C@@H](O)C(C)(C)[C@@H]5CC[C@]43C)[C@@H]2C1
- Activity [16]: 5.3%
- Activity [17]: 70.2%
- Activity [18]: 60.8%

Compound: C[C@@H]1CC[C@]2(C(=O)O)CC[C@]3(C)C(=CC[C@@H]4[C@@]5(C)C[C@@H](O)[C@@H](O)C(C)(C)[C@@H]5CC[C@]43C)[C@@H]2[C@]1(C)O [EUSCAPHIC ACID]
- Activity [19]: 48.8%

Compound: C[C@@H]1O[C@@H](O[C@H]2[C@H](O[C@H]3CC[C@]4(C)[C@H]5CC=C6[C@@H]7CC(C)(C)CC[C@]7(C(=O)O[C@@H]7O[C@H](CO)[C@@H](O[C@@H]8O[C@H](CO)[C@@H](O)[C@H](O)[C@H]8O)[C@H](O)[C@H]7O[C@@H]7O[C@H](CO)[C@@H](O)[C@H](O)[C@H]7O)[C@H](O)C[C@@]6(C)[C@]5(C)CC[C@H]4C3(C)C)O[C@H](CO)[C@@H](O)[C@@H]2O)[C@H](O)[C@H](O)[C@H]1O
- Activity [20]: 4%

Compound: C[C@H]1[C@H](C)CC[C@]2(C(=O)O)CC[C@]3(C)C(=CC[C@@H]4[C@@]5(C)CC[C@H](O)[C@@](C)(CO)[C@@H]5CC[C@]43C)[C@H]12
- Activity [21]: 58.3%

Compound: CC1(C)CC[C@]2(C(=O)O[C@@H]3O[C@H](CO)[C@@H](O)[C@H](O)[C@H]3O)CC[C@]3(C)C(=CC[C@@H]4[C@@]5(C)CC[C@H](O[C@@H]6O[C@H](C(=O)O)[C@@H](O)[C@H](O)[C@H]6O[C@@H]6OC[C@H](O)[C@H](O)[C@H]6O)C(C)(C)[C@@H]5CC[C@]43C)[C@@H]2C1
- Activity [22]: 28%

Compound: CC(=O)O[C@H]1[C@@H]2O[C@@]3(C(C)(C)O)CC[C@](C)(O3)C2[C@@]2(CO)CC[C@@]34C[C@@]35CC[C@H](O)C(C)(C)C5CC[C@H]4[C@]12C (stereo partly drawn)
- EC50 [15]: 55.9 µM

Compound: CC(=O)O[C@H](C/C=C(/C)C(=O)O)[C@@H](C)[C@H]1CCC2(C)[C@@H]3CC[C@H]4C(C)(C)C(=O)CC[C@@]45C[C@@]35CC[C@]12C (stereo partly drawn)
- Activity [23]: 30.8%

Compound: C[C@@H]1O[C@@H](O[C@H]2[C@H](OC(=O)[C@]34CCC(C)(C)C[C@H]3C3=CC[C@@H]5[C@@]6(C(=O)O)CC[C@H](O)[C@@](C)(C(=O)O)[C@@H]6CC[C@@]5(C)[C@]3(C)CC4)O[C@H](C)[C@H](O)[C@@H]2O)[C@H](O)[C@H](O)[C@H]1O[C@@H]1O[C@H](CO)[C@@H](O[C@@H]2OC[C@@H](O)[C@H](O)[C@H]2O[C@@H]2OC[C@H](O)[C@H](O)[C@H]2O)[C@H](O)[C@H]1O
- Activity [24]: 221.03 U/mg
- Activity [25]: 59.91 U/mg
- Activity [26]: 87.1 U/mg
- Activity [27]: 69.12 U/mg
- Activity [28]: 198.16 U/mg
- Activity [29]: 84.68 U/mg

Compound: CC1(C)CC[C@]2(C(=O)O[C@@H]3O[C@H](CO)[C@@H](O)[C@H](O)[C@H]3O)CC[C@]3(C)C(=CC[C@@H]4[C@@]5(C)CC[C@H](O[C@@H]6O[C@H](C(=O)O)[C@@H](O)[C@H](O)[C@H]6O[C@@H]6O[C@H](CO)[C@@H](O)[C@H](O)[C@H]6O)C(C)(C)[C@@H]5CC[C@]43C)[C@@H]2C1 [GINSENOSIDE R0]
- Activity [22]: 42%

Compound: CC(C)[C@]1(CO[C@@H]2O[C@H](CO)[C@@H](O)[C@H](O)[C@H]2O)CC[C@@H]([C@H]2[C@H](O)C[C@]3(C)[C@@H]2CC[C@@H]2[C@@]4(C)CC[C@H](O[C@@H]5O[C@H](CO)[C@@H](O)[C@H](O)[C@H]5O[C@@H]5O[C@H](CO)[C@@H](O)[C@H](O)[C@H]5O)C(C)(C)[C@@H]4CC[C@]23C)O1
- Activity [30]: 14.7%
- Activity [31]: 28.2%

Compound: C[C@@H]1O[C@@H](O[C@H]2[C@H](O[C@H]3CC[C@]4(C)[C@H]5CC=C6[C@@H]7CC(C)(C)CC[C@]7(C(=O)O[C@@H]7O[C@H](CO)[C@@H](O)[C@H](O)[C@H]7O[C@@H]7O[C@H](CO)[C@@H](O)[C@H](O)[C@H]7O)[C@H](O)C[C@@]6(C)[C@]5(C)CC[C@H]4C3(C)C)O[C@H](CO)[C@@H](O)[C@@H]2O)[C@H](O)[C@H](O)[C@H]1O
- Activity [20]: 79%

Compound: C[C@@H]1O[C@@H](O[C@H]2[C@H](OC(=O)[C@]34CCC(C)(C)C[C@H]3C3=CC[C@@H]5[C@@]6(C(=O)O)CC[C@H](O)[C@@](C)(C(=O)O)[C@@H]6CC[C@@]5(C)[C@]3(C)CC4)O[C@H](C)[C@H](O)[C@@H]2O)[C@H](O)[C@H](O)[C@H]1O[C@@H]1O[C@H](CO)[C@@H](O[C@@H]2OC[C@@H](O)[C@H](O)[C@H]2O)[C@H](O)[C@H]1O
- Activity [24]: 193.68 U/mg
- Activity [25]: 59.57 U/mg
- Activity [26]: 85.63 U/mg
- Activity [27]: 67.77 U/mg
- Activity [28]: 196.16 U/mg
- Activity [29]: 81.85 U/mg

Compound: CC1=CC[C@H]([C@@H](C)[C@H]2CC[C@@]3(C)[C@@H]4CC[C@@H](C(C)(C)O)[C@@]5(CCC(=O)O)C[C@@]45CC[C@@]23C)OC1=O
- Activity [23]: 35.7%
